Literature values in patent US20250339484A1, “COMPOSITION FOR BODY FAT REDUCTION CONTAINING EXTRACTS OF TARAXACUM PLATYCARPUM AND LONICERAE JAPONICA AS ACTIVE INGREDIENTS” (BOINBIO-CONVERGENCE CO., LTD., priority 2022, published 2025).

Details: clinical trials, about 3 g per day, after 3 months

SMILES: CCCC/C=C/C=C/C=C\CCCCCCCC(=O)O [CLA, conjugated linolenic acid]
- body weight reduction (average): 2.5 kg
